# Data from BindingDB's records for doi:10.1016/j.bmc.2005.01.048 (Pfizer, 2005).
# Biological target: T1, Renin (Homo sapiens, UniProt P00797)
# T1 sequence (P00797 whole entry): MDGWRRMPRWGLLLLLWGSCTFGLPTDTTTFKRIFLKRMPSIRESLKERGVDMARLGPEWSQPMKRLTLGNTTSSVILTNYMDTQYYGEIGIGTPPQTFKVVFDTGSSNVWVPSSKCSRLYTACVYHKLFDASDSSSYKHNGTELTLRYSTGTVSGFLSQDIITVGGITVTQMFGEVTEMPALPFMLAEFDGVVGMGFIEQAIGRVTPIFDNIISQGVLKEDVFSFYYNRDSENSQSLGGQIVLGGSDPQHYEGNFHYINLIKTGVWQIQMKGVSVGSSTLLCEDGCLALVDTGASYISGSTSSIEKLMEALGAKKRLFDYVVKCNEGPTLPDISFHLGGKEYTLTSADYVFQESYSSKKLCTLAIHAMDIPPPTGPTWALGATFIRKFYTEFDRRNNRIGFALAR
# Test: In Vitro Renin IC50 Determinations (Tandem GFP FRET Assay)
# Details: pH 7.4; 22 °C
# Description: The renin assay utilized a tandem Green Flourescent Protein (tGFP) substrate that was hydrolyzed by human rennin. The tGFP substrate contained a nine amino acid (Ile-His-Pro-Phe-His-Leu-Val-Ile-His) recognition sequence for human renin flanked by two GPF proteins (W1B and Topaz). Human rennin cleaves the leucine-valine site of the substrate linker. Once cleaved, the emission ratio changes. The change was monitored by the ratio of 530 nm (topaz) over 475 nm (W1B) with the excitation set at 432 nm and the cutoff at 515 nm. The assay used a 384 well plate format that was read using a Gemini XS Fluorometric plate reader (Molecular Devices). Compounds were screened at a starting concentration of 10 uM and used a fourfold eleven-point dilution regiment.
row,IC50 [nM],Compound
1,1020,COc1ccccc1COCCCOc1ccc(N2CCNC[C@@H]2COCc2ccc(-c3ccccc3)cc2)cc1 [(2R)-1-(4-{3-[(2-methoxyphenyl)methoxy]propoxy}phenyl)-2-{[(4-phenylphenyl)methoxy]methyl}piperazine]
2,0.5,"COc1ccccc1COCCCOc1ccc(N2CCNC[C@@H]2COc2ccc3c(c2)N(CCNC(C)=O)CCC3)cc1 [N-[2-(7-{[(2R)-1-(4-{3-[(2-methoxyphenyl)methoxy]propoxy}phenyl)piperazin-2-yl]methoxy}-1,2,3,4-tetrahydroquinolin-1-yl)ethyl]acetamide]"
3,180,COc1ccccc1COCCCOc1ccc(N2CCNC[C@@H]2COc2ccc3ccccc3c2)cc1 [(2R)-1-(4-{3-[(2-methoxyphenyl)methoxy]propoxy}phenyl)-2-[(naphthalen-2-yloxy)methyl]piperazine]
4,0.3,COc1ccccc1COCCCOc1ccc(N2C(=O)CNC[C@@H]2COc2ccc3c(c2)N(CCNC(C)=O)CCC3)cc1
